pIC50: −log10 of the molar value.
Tested on: 252836-082-R-J2-PDC tumor spheroids, viability
Assay: Anticancer human tumor 252836-082-R-J2-PDC patient-derived head and neck squamous cell carcinoma cell line growth inhibition [PI3K]
Settings: spheroids with HUVEC and MSC; for pIC50: curve of first compound; for viability, T/C: stronger effect = lower value
Procedure, shortened: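 Three cell types, namely tumor cells, endothelial cells and mesenchymal stem cells, formed each spheroid. Combinations with four PI3K inhibitors were screened at clinically achievable concentrations decreasing by half-log, and spheroid viability was recorded.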

[1] = second compound 0.0316 µM, first compound 0.0316 µM
[2] = second compound 0.0316 µM, first compound 0.1 µM
[3] = second compound 0.0316 µM, first compound 0.316 µM
[4] = second compound 0.0316 µM, first compound 1 µM
[5] = second compound 0.0316 µM, first compound 3.16 µM
[6] = second compound 0.0316 µM, first compound 10 µM
[7] = second compound 0.1 µM, first compound 0.0316 µM
[8] = second compound 0.1 µM, first compound 0.1 µM
[9] = second compound 0.1 µM, first compound 0.316 µM
[10] = second compound 0.1 µM, first compound 1 µM
[11] = second compound 0.1 µM, first compound 3.16 µM
[12] = second compound 0.1 µM, first compound 10 µM
[13] = second compound 0.316 µM, first compound 0.0316 µM
[14] = second compound 0.316 µM, first compound 0.1 µM
[15] = second compound 0.316 µM, first compound 0.316 µM
[16] = second compound 0.316 µM, first compound 1 µM
[17] = second compound 0.316 µM, first compound 3.16 µM
[18] = second compound 0.316 µM, first compound 10 µM
[19] = second compound 1 µM, first compound 0.0316 µM
[20] = second compound 1 µM, first compound 0.1 µM
[21] = second compound 1 µM, first compound 0.316 µM
[22] = second compound 1 µM, first compound 1 µM
[23] = second compound 1 µM, first compound 3.16 µM
[24] = second compound 1 µM, first compound 10 µM
[25] = second compound 3.16 µM, first compound 0.0316 µM
[26] = second compound 3.16 µM, first compound 0.1 µM
[27] = second compound 3.16 µM, first compound 0.316 µM
[28] = second compound 3.16 µM, first compound 1 µM
[29] = second compound 3.16 µM, first compound 3.16 µM
[30] = second compound 3.16 µM, first compound 10 µM
[31] = second compound 10 µM, first compound 0.0316 µM
[32] = second compound 10 µM, first compound 0.1 µM
[33] = second compound 10 µM, first compound 0.316 µM
[34] = second compound 10 µM, first compound 1 µM
[35] = second compound 10 µM, first compound 3.16 µM
[36] = second compound 10 µM, first compound 10 µM
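Note: spheroids exposed to agents for seven days before readout.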
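Throughout, for viability, T/C: percent of vehicle DMSO control viability so 100% = untreated growth.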

## CC(C)NCC(C(=O)N1CCN(c2ncnc3c2C(C)CC3O)CC1)c1ccc(Cl)cc1 (stereo unspecified) + Cc1nc(NC(=O)N2CCCC2C(N)=O)sc1-c1ccnc(C(C)(C)C(F)(F)F)c1
Second compound 0.0316 µM
  pIC50: 6.01
Second compound 0.1 µM
  pIC50: 6.11
Second compound 0.316 µM
  pIC50: 6.08
Second compound 1 µM
  pIC50: 6.34
Second compound 3.16 µM
  pIC50: > 7.50
Second compound 10 µM
  pIC50: > 7.50
[1]
  viability, T/C: 87.3%
[2]
  viability, T/C: 73.3%
[3]
  viability, T/C: 76.3%
[4]
  viability, T/C: 47.9%
[5]
  viability, T/C: 30.2%
[6]
  viability, T/C: 22.1%
[7]
  viability, T/C: 87.8%
[8]
  viability, T/C: 73.7%
[9]
  viability, T/C: 64%
[10]
  viability, T/C: 47.7%
[11]
  viability, T/C: 29.5%
[12]
  viability, T/C: 19.2%
[13]
  viability, T/C: 70.3%
[14]
  viability, T/C: 67.3%
[15]
  viability, T/C: 68.9%
[16]
  viability, T/C: 44.5%
[17]
  viability, T/C: 31.7%
[18]
  viability, T/C: 21%
[19]
  viability, T/C: 55.6%
[20]
  viability, T/C: 50.3%
[21]
  viability, T/C: 60.1%
[22]
  viability, T/C: 40.2%
[23]
  viability, T/C: 29.5%
[24]
  viability, T/C: 19.1%
[25]
  viability, T/C: 41.3%
[26]
  viability, T/C: 48.1%
[27]
  viability, T/C: 43%
[28]
  viability, T/C: 36.5%
[29]
  viability, T/C: 25.8%
[30]
  viability, T/C: 17.2%
[31]
  viability, T/C: 32.8%
[32]
  viability, T/C: 36.1%
[33]
  viability, T/C: 27.8%
[34]
  viability, T/C: 21.6%
[35]
  viability, T/C: 19.8%
[36]
  viability, T/C: 10.1%

## CCN1CCN(Cc2ccc(Nc3ncc(F)c(-c4cc(F)c5nc(C)n(C(C)C)c5c4)n3)nc2)CC1 + Cc1nc(NC(=O)N2CCCC2C(N)=O)sc1-c1ccnc(C(C)(C)C(F)(F)F)c1
Second compound 0.0316 µM
  pIC50: < 6.00
Second compound 0.1 µM
  pIC50: < 6.00
Second compound 0.316 µM
  pIC50: < 6.00
Second compound 1 µM
  pIC50: < 6.00
Second compound 3.16 µM
  pIC50: > 8.50
Second compound 10 µM
  pIC50: > 8.50
Second compound 0.0316 µM, first compound 0.00316 µM
  viability, T/C: 101%
Second compound 0.0316 µM, first compound 0.01 µM
  viability, T/C: 94.1%
[1]
  viability, T/C: 80.8%
[2]
  viability, T/C: 80.5%
[3]
  viability, T/C: 91.3%
[4]
  viability, T/C: 87%
Second compound 0.1 µM, first compound 0.00316 µM
  viability, T/C: 84.2%
Second compound 0.1 µM, first compound 0.01 µM
  viability, T/C: 85%
[7]
  viability, T/C: 77.8%
[8]
  viability, T/C: 80.2%
[9]
  viability, T/C: 85.7%
[10]
  viability, T/C: 86.3%
Second compound 0.316 µM, first compound 0.00316 µM
  viability, T/C: 67.8%
Second compound 0.316 µM, first compound 0.01 µM
  viability, T/C: 74.8%
[13]
  viability, T/C: 64.7%
[14]
  viability, T/C: 69.9%
[15]
  viability, T/C: 59%
[16]
  viability, T/C: 68%
Second compound 1 µM, first compound 0.00316 µM
  viability, T/C: 58.3%
Second compound 1 µM, first compound 0.01 µM
  viability, T/C: 74.9%
[19]
  viability, T/C: 59.4%
[20]
  viability, T/C: 61.9%
[21]
  viability, T/C: 62.5%
[22]
  viability, T/C: 46.4%
Second compound 3.16 µM, first compound 0.00316 µM
  viability, T/C: 49.1%
Second compound 3.16 µM, first compound 0.01 µM
  viability, T/C: 39.4%
[25]
  viability, T/C: 43.5%
[26]
  viability, T/C: 40.2%
[27]
  viability, T/C: 44.2%
[28]
  viability, T/C: 43.1%
Second compound 10 µM, first compound 0.00316 µM
  viability, T/C: 35.4%
Second compound 10 µM, first compound 0.01 µM
  viability, T/C: 42.1%
[31]
  viability, T/C: 27.5%
[32]
  viability, T/C: 40.1%
[33]
  viability, T/C: 32%
[34]
  viability, T/C: 21.1%

## Cn1ncc(Cl)c1-c1cc(C(=O)NC(CN)Cc2cccc(F)c2)sc1Cl (stereo unspecified) + Cc1nc(NC(=O)N2CCCC2C(N)=O)sc1-c1ccnc(C(C)(C)C(F)(F)F)c1
Second compound 0.0316 µM
  pIC50: 6.41
Second compound 0.1 µM
  pIC50: 6.18
Second compound 0.316 µM
  pIC50: 6.44
Second compound 1 µM
  pIC50: 7.28
Second compound 3.16 µM
  pIC50: > 7.50
Second compound 10 µM
  pIC50: > 7.50
[1]
  viability, T/C: 82.8%
[2]
  viability, T/C: 65%
[3]
  viability, T/C: 57.8%
[4]
  viability, T/C: 33.6%
[5]
  viability, T/C: 28.4%
[6]
  viability, T/C: 17.6%
[7]
  viability, T/C: 83.9%
[8]
  viability, T/C: 64%
[9]
  viability, T/C: 67.5%
[10]
  viability, T/C: 41.8%
[11]
  viability, T/C: 27.4%
[12]
  viability, T/C: 12.2%
[13]
  viability, T/C: 67.4%
[14]
  viability, T/C: 61.3%
[15]
  viability, T/C: 52.4%
[16]
  viability, T/C: 36.9%
[17]
  viability, T/C: 29.5%
[18]
  viability, T/C: 11.1%
[19]
  viability, T/C: 52%
[20]
  viability, T/C: 47.4%
[21]
  viability, T/C: 44.6%
[22]
  viability, T/C: 35.8%
[23]
  viability, T/C: 28.6%
[24]
  viability, T/C: 12%
[25]
  viability, T/C: 44.5%
[26]
  viability, T/C: 42.1%
[27]
  viability, T/C: 43.6%
[28]
  viability, T/C: 30.7%
[29]
  viability, T/C: 25.4%
[30]
  viability, T/C: 9.67%
[31]
  viability, T/C: 40.4%
[32]
  viability, T/C: 36.1%
[33]
  viability, T/C: 34.1%
[34]
  viability, T/C: 26.1%
[35]
  viability, T/C: 20.9%
[36]
  viability, T/C: 7.53%

From PubChem BioAssay AID1963985 (Molecular Pharmacology Branch, DTP, NCI, 2024)
